# Experiment: siRNA stability in 50% FBS (gel electrophoresis)
# Format: in vitro ADME, bovine
# Description: siRNA-loading capacity of MSN^a was evaluated by the agarose gel retardation assay. siRNA-loaded MSNs (MSN^a/siRNA) complexes were prepared varying the MSN^a/siRNA weight ratio from 1/1 to 50/1. The complexes were loaded in 2% agarose gel and run in 0.5×TAE buffer at 80 V for 40 min. The gel was stained with ethidium bromide, and siRNA bands were detected at 302 nm using Azure C300 (Dublin, CA, USA). For stability testing, siRNA or NPs were challenged with 166 U/mL RNase for 15 min±8 mg/mL SDS for additional 2.5 h or 50% FBS for 1 h, both at 37° C., and analyzed by agarose gel electrophoresis. To quantify siRNA loaded in Nanosac (O/siRNA/pD), the NPs were dispersed in dilute HCl solution (pH 3) and incubated for 72 h. The samples were centrifuged at 16,000 rcf for 10 min, and the supernatant and pellet were separately analyzed by agarose gel electrophoresis.
substance,measurement,value
"siPD-L1: PD-L1 siRNA, sense 5′-CCCACAUAAAAAACAGUUGTT-3′ (SEQ ID NO: 1), antisense SEQ ID NO: 2 (antisense CAACUGUUUUUUAUGUGGGTT; chemistry not given here)",stability of siRNA in 50% FBS,completely degraded
